Measurements: article PMC8540617, “Dual Targeting of PTP1B and Aldose Reductase with Marine Drug Phosphoeleganin: A Promising Strategy for Treatment of Type 2 Diabetes” (Marine Drugs, 2021)

Assays:
[1] = biological target: T1, human recombinant PTP1B (1-302) (Homo sapiens, UniProt P18031); experiment: PTP1B activity / inhibition assay (p-NPP hydrolysis); format: biochemical
T1 construct: The human recombinant PTP1B (1-302 aa) and LMW-PTP (full-length) were expressed as fusion proteins; polyhistidine (N); made in house; host or cells: E. coli BL21(DE3) pLysS
T1 sequence (P18031 1-302): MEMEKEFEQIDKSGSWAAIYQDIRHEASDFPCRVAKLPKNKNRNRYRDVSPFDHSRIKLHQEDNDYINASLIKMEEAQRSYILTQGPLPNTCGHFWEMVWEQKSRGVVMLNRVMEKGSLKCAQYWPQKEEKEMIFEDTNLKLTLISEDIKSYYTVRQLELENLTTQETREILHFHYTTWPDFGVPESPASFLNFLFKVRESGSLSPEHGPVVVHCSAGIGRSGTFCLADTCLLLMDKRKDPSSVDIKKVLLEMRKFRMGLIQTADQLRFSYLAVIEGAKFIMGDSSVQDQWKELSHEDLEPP
Experimental: PTP1B activity was determined as previously described. Briefly, each assay was started by adding an aliquot of human recombinant PTP1B (1-302) in the assay buffer (0.075 M β,β-dimethylglutarate pH 7.0, containing 1 mM EDTA, 0.1 mM DTT, and p-nitrophenylphosphate (p-NPP)). All reactions were performed at 37 °C in a final volume of 1 mL. After the incubation time, the reactions were stopped by adding 2 mL of 0.1 M KOH to the samples. The concentration of the released p-nitrophenol was determined by measuring the absorbance at 400 nm in a 1 cm pathlength cuvette. One unit of enzyme activity is the amount that catalyses the conversion of 1 μmol of substrate/min in the above assay conditions.
(§1) PE was dissolved in DMSO at a final concentration of 10 mM and added to the assay mixture containing 10 mU of purified AR (84 nM on the basis of a 34 KDa molecular weight) or 8 mU purified PTP1B (52 nM on the basis of a 36 KDa molecular weight). The reaction was started by the addition of the substrate. The DMSO concentration in the assays for AR determination was kept constant at 0.7 % (v/v) in order to avoid effects on AR activity. The inhibitory effect of PE was determined by measuring the reaction rates in the presence of a fixed substrate concentration (2.5 mM p-NPP and 0.8 mM L-idose for PTP1B and AR, respectively) and increasing inhibitor concentrations (at least 14-16 different concentrations). The IC50 (the inhibitor concentration able to decrease the enzymatic activity up to 50%) values were determined by nonlinear regression analysis using Prism GraphPad 6.0 (GraphPad Software, San Diego, CA, USA), fitting experimental data to the following equation: Vi/V0 = Max − Min/1 + x/IC50^slope + Min where Vi/V0 represents the relative activity calculated in presence of each inhibitor concentration; “Max” and “Min” represent the maximum and minimum value of the activity, respectively; “x” is the concentration of the inhibitor; and “slope” represents the slope of the curve in the transition zone.
(§2) In order to define the mechanism of action of PE, reaction rates were measured in assay mixtures containing different L-idose concentrations (between 0.8 and 6 mM) in the case of AR, and different p-NPP concentrations (between 0.5 and 25 mM) in the case of PTP1B, in the absence and in the presence of different PE concentrations. Data were analysed by Lineweaver–Burk plots. The apparent dissociation constants Ki’ (for the ESI complex) and Ki (for the EI complex) were determined from secondary plots of 1/^appVmax and ^appKM/^appVmax as a function of the inhibitor concentration, respectively.
Figure S3. Determination of IC50 value for PE. […] The amount of p-NP released was determined using a spectrophotometer, measuring the absorbance of samples at 400 nm, using a 1cm path length cuvette. […]

[2] = biological target: T2, human recombinant AR (Homo sapiens, UniProt P15121); experiment: AR activity / inhibition assay (NADPH oxidation, L-idose as substrate); format: biochemical
T2 construct: made in house; host or cells: E. coli BL21(DE3) pLysS
Experimental: AR activity was determined at 37 °C, as previously described, evaluating the decrease in absorbance at 340 nm linked to NADPH oxidation using a Biochrom Libra S60 spectrophotometer. The standard assay mixture contained 0.25 M sodium phosphate buffer pH 6.8, 0.18 mM NADPH, 2.4 M ammonium sulphate, 0.5 mM EDTA, and 4.7 mM D,L-glyceraldehyde. One unit of enzyme activity is the amount that catalyses the conversion of 1 μmol of substrate/min in the above assay conditions. For AR inhibition studies, L-idose (at the indicated concentrations) was used as substrate in the conditions described above.
as §1, §2

[3] = biological target: T2, human recombinant AR; experiment: Reversibility of AR inhibition by dialysis; format: biochemical
Experimental: (§3) The mixture was then extensively dialysed on Amicon ultrafiltration membrane (cut-off 3 KDa) against 10 mM sodium phosphate buffer, pH 7.0. After dialysis, the enzyme activity was again measured using 0.8 mM L-idose as substrate and compared to that of a mixture treated in the same conditions but in the absence of inhibitor. In order to evaluate the reversibility of the inhibitory action on PTP1B, 8 mU of PTP1B was incubated in the presence of a saturating concentration of PE (3 µM) and then incubated at 37 °C for 1 h. After this time, an aliquot of solution was withdrawn and extensively diluted in the assay buffer containing 2.5 mM of p-NPP. Residual activity of PTP1B was determined by calculating the amount of pNP released by measuring the absorbance of solution at 400 nm.

[4] = biological target: T1, human recombinant PTP1B (1-302); experiment: Reversibility of PTP1B inhibition, dilution assay; format: biochemical
Experimental: as §3
Figure S3. Determination of IC50 value for PE. An aliquot of PTP1B (8 mU) was incubated in the presence of increasing PE concentration in the assay buffer containing 2.5 mM pNPP. After 30 minutes, the reactions were stopped by adding 2 mL of 0.1 M KOH solution. The amount of p-NP released was determined using a spectrophotometer, measuring the absorbance of samples at 400 nm, using a 1cm path length cuvette. All tests were carried out in triplicate. Data obtained were normalized respect to control test and fitted using an opportune equation (see Material and method […]
Figure S4. Dilution assay. […]

[5] = tested on: HepG2 cells; experiment: Analysis of the insulin signalling pathway (Western blot of IR and Akt phosphorylation); format: cell-based; conditions: HepG2, PE 25 µM combined with insulin 10 nM, 30 minutes
Experimental: To evaluate whether PE is able to improve the insulin signalling pathway in vitro, we analysed the effect of the compound on HepG2 cell line. For this purpose, we treated HepG2 cells with PE (25 µM final concentration) for 30 minutes in the presence or absence of insulin (10 nM). After treatment, cells were lysed and cellular extracts were analysed to evaluate the phosphorylation status of insulin receptor (IR) and Akt, a kinase downstream IR (Figure 7).
Figure 7 Effect of PE on the insulin signalling pathway. Panel A: Western blot image; Panel B: quantitation of Western blot carried out using Kodak MI software. Data shown were normalized with respect to the control sample. All tests were carried out in triplicate. […]
In order to evaluate the effect of PE on the insulin signalling pathway, HepG2 cells were seeded in 35-mm culture dishes and, after 24 hours, were incubated for 30 minutes with starvation medium (DMEM supplemented with 2 mM glutamine, 100 U/mL penicillin, and 100 μg/mL streptomycin) containing 25 μM of PE and/or 10 nM insulin (Humalog, lispro insulin). […] Cellular extracts were boiled for 5 minutes, and then an aliquot (20 µg of protein) was analysed by SDS-PAGE and Western blot to evaluate both total and phosphorylated expression levels of Akt and IR. β-actin was used as a reference protein to normalise protein loading.

CCCCCCCCCCCCCCC(OP(=O)(O)O)C(O)CCC(O)C(O)CCC(O)CCCCCCC(=O)NCC(=O)O (centres unmarked) [PE, phosphoeleganin]
IC50 ([1]; 2.5 mM p-NPP, pH 7.0, 37 °C, 8 mU PTP1B): 1.3 ± 0.04 µM | Type of inhibition of PTP1B ([1]; Lineweaver–Burk analysis): pure non-competitive inhibitor | K'i (ESI complex) for PTP1B ([1]; secondary plot of 1/appVmax vs PE concentration, p-NPP 0.5-25 mM): 0.7 ± 0.1 µM | Ki ([1]; secondary plot of appKM/appVmax vs PE concentration, p-NPP 0.5-25 mM, read-out: Ki (EI complex) for PTP1B): 0.7 ± 0.1 µM | IC50 ([2]; 0.8 mM L-idose, pH 6.8, 37 °C, 10 mU AR): 28.7 ± 1.1 µM | Type of inhibition of AR ([2]; Lineweaver–Burk analysis): mixed inhibitor | K'i (ESI complex) for AR ([2]; secondary plot of 1/appVmax vs PE concentration, L-idose 0.8-6 mM): 36 ± 1 µM | Ki ([2]; secondary plot of appKM/appVmax vs PE concentration, L-idose 0.8-6 mM, read-out: Ki (EI complex) for AR): 47 ± 1 µM | Reversibility of AR inhibition [3]: reversible inhibitor | AR enzyme activity recovered after removal of inhibitor by extensive dialysis ([3]; 10 mU AR incubated 90 min at 0 °C with PE 3 mM, then dialysed, 0.8 mM L-idose): 100% | Reversibility of PTP1B inhibition [4]: reversible inhibitor | PTP1B activity recovered after dilution ([4]; incubation with saturating PE (3 µM) at 37 °C, then dilution in buffer with 2.5 mM p-NPP): almost completely | Akt phosphorylation level [5]: significant increase | IR phosphorylation level [5]: significant increase
